Values of other authors in patent publication US20030216635A1, “Method and system for monitoring pancreatic pathologies” (priority 2000, published 2003).

Conditions: value substituted into equation 1.3; set up at 4.7 Tesla

O=C([O-])CN(CCN(CC(=O)[O-])CC(=O)O)CCN(CC(=O)[O-])CC(=O)O.[Gd+3] [GdDTPA, gadolinium-diethylenetriamine-pentaacetic-acid]
Relaxivity constant R: 4.3 mM^−1 sec ^−1
